In patent US7273964B1, “Non-human transgenic animals for the study of neurodegenerative syndromes” (Scuola Internazionale Superiore Di Studi Avanzati, priority 1999, dated 2007):
“Also recorded” adds a separate entry of the source.

Key:
[1] = test system: anti-NGF mice; assay: Number of ChAT-positive neurons in the basal forebrain (immunohistochemistry, stereology); format: in vivo, mouse
Method: (§1) Peptide 18 treatment. Prior to the injections, phages carrying the peptide 18 or a peptide raised against NT-3 (negative control) were amplified by infecting 2.5 ml of an overnight colture of DH5alpha F′ bacteria with 5 ml of phage supernatant in 1 liter of 2TY. After an overnight incubation at 30° C., bacteria were removed by centrifugation at 6000 rpm for 20 min at 4° C. Phage particles were precipitated by adding 1 volume of PEG/NaCl (20% PEG6000, 2.5 M NaCl) to 5 volumes of the supernatant. After mixing, the solution was left stand overnight at 4° C. and spinned at […] for 30 min. The pellet was resuspended in 40 ml of […], kept at 65° C. and then spun for 5 min at 11000 rpm.
One volume of PEG/NaCl was mixed to 5 volumes of the phage containing supernatant and incubated for 2 hrs at 4° C. After spinning at 11000 rpm for 5 min., the pellet was resuspended in PBS, spun again to remove cell debris and filtered through a 0.22 μm sterile filter. The phage suspension was then titred by infecting 100 μl of an overnight colture of DH5α F′, mixed with LB top agar and plated on LB plates. Phages carrying the carrying the peptide 18 or a peptide binder of anti-NT-3 (10^9–10^12 pfu/μl) were injected in both lateral ventricles. Phages were injected at postnatal day 53 (P53) and mice were killed 1 week after the injection. For the injection, mice were anaesthetised with 2,2,2-Tribromoethanol (0.2 ml/10 g body weight of a 1.2% solution). One μl of phage suspension was injected using a 17 gauge needle connected to a 10 μl Hamilton by a polyethylene cannula, 1 mm lateral and 1 mm anterior to Bregma. After the injection, animals were treated with ampicillin (1 mg/kg) every day, in order to prevent any bacterial infection. Experiment were performed three times for a total number of animals equal to 14 for each group of treatment.
L-thyroxine treatment. […]
Quantitative stereology. The volume of basal forebrain and the number of BFCNs was evaluated in 9 anti-NGF transgenic mice and 8 transgenic controls by using a stereological approach (Ruberti, 2000).

[2] = test system: anti-NGF mice; assay: AT8 (phosphorylated tau) immunohistochemistry in entorhinal cortex; format: in vivo, mouse
Method: as §1
One volume of PEG/NaCl was mixed to 5 volumes of the phage containing supernatant and incubated for 2 hrs at 4° C. After spinning at 11000 rpm for 5 min., the pellet was resuspended in PBS, spun again to remove cell debris and filtered through a 0.22 μm sterile filter. The phage suspension was then titred by infecting 100 μl of an overnight colture of DH5α F′, mixed with LB top agar and plated on LB plates. Phages carrying the carrying the peptide 18 or a peptide binder of anti-NT-3 (10^9–10^12 pfu/μl) were injected in both lateral ventricles. Phages were injected at postnatal day 53 (P53) and mice were killed 1 week after the injection. […]

[3] = test system: free NGF; assay: Determination of free NGF by ELISA; format: in vivo, mouse
Method: Determination of free NGF. The levels of free NGF (i.e. NGF not bound to the transgenic antibodies) in the different tissues was determined by an ELISA assay. This assay exploits the property of αD11 antibody to recognize NGF in a two-site ELISA format 16. Samples of blood serum or of tissue extracts (derived as in Molnar et al., 1998) were added to wells coated with mAb αD11 (coating concentration of […]). After incubation for 2 hours at r.t. and extensive washing with PBS-0.05% Tween 20, followed by PBS, free NGF, not engaged with transgenic αD11, was detected using an affinity-purified rabbit anti-NGF polyclonal antiserum.

[4] = test system: visual cortex slices of anti-NGF mice; assay: Long Term Potentiation (LTP) in visual cortex slices, electrophysiological recordings; design: species or system mouse; conditions: 12 µg/animal/day for 4 weeks
Method: Visual cortex slices preparation and electrophysiological recordings. Postsynaptic field potentials were recorded in […] in vitro slices containing visual cortex, following previously described methods (Kirkwood and Bear, 1994). Anti-NGF and transgenic control mice were deeply anesthetized with urethane and then decapitated. The brain was rapidly removed and visual cortex slices (400 μm) prepared and superfused in a submerged recording chamber at 33° C. with gassed artificial cerebrospinal fluid (aCSF) at a rate of 4 ml/min.
The amplitude of the maximum negative field potential in layer 2/3 was used as a measure of the evoked population excitatory current. LTP was induced by 3 trains of high frequency stimulation (HFS, 100 Hz, 1 s). Experiments were performed at different postnatal ages 6 months, when the functional maturation of the visual cortex is completed. Acetylcholine dependence of LTP was investigated by locally delivering through the recording pipette. […] The magnitude of both LTP was measured starting 30 min after the end of the corresponding conditioning protocol. Data for each experimental group were pooled and expressed as percentage change from control baseline, PCCB±S.E.M. Statistical comparison was done by applying a t-test and Mann-Whitney Rank Sum Test between baseline and LTP mean values.

[5] = test system: gastrocnemius muscle of anti-NGF mice; assay: Reversibility of the muscular dystrophy in anti-NGF mice by NGF local administration; format: in vivo, mouse; conditions: 45 day old anti-NGF mice, 7, 15 and 30 days after injection
Method: All the experiments were carried out on 45 day old mice, when the serum level of the anti-NGF antibody is still not at the highest level (observed 60 days after the birth). The NGF was administered locally by different methods: (a) by intramuscular injection of NGF, (b) by intramuscular injection of a viral recombinant vector (adenovirus) encoding for NGF cDNA or (c) by the implant of NGF secreting fibroblasts. All the administration routes included the injection or implant in the gastrocnemius muscle, one of the skeletal muscles affected by muscular dystrophy. The injections and implants were carried out on the right leg, while the gastrocnemius muscle of the left leg was used as control. A) NGF was injected as pellet, consisting of diazocellulose mixed NGF in borate buffer at pH 8.0 for 72 hours and following neutralisation by glycine saturated solution (Hendry, 1982). This method allows the exact localisation and slow release of this neurotrophin. Different NGF concentrations were used, comprised in the range from […] and 2 mg for each animal. […]
To verify the effect of the NGF administration the animals were sacrificed 7, 15 and 30 days after the injection. The injected and contralateral muscles were collected and analysed by histological and immunohistochemical techniques to verify the attenuation of the dystrophy and the restoration of usual innervation.

[6] = test system: anti-NGF mice; assay: Restoration of the cholinergic phenotype in the basal forebrain of anti-NGF mice by NGF (minipump or NGF-secreting fibroblasts, lateral ventricle); format: in vivo, mouse; conditions: 2 months-old anti-NGF mice; NGF into lateral ventricle
Method: The restoration of the cholinergic phenotype in the basal forebrain was achieved by two different approaches. In a first set of experiments, NGF was delivered using slow releasing minipumps (Alzet, USA) A rubber capillary tube was inserted in the lateral ventricle and then connected by means of an osmotic minipump to a <> of the subcutaneous layer. This pump was filled by NGF (30–100 μg) diluted with Ringer-Locke physiological saline. Experiments were performed in 2 months-old transgenic mice and controls.
In another set of experiments, animals of the same age of previous ones were treated by an implant of fibroblasts genetically modified to secrete NGF. The fibroblasts were injected in the lateral ventricle at a 2×10^5 cells/μl concentration. The injection volume was 1.5 μl/animal. This second method allowed to verify, by ELISA, the constancy of NGF production over 4 weeks after the implantation.

[7] = test system: αD11 antibody; assay: Phage ELISA assay; format: binding; conditions: phages selected against αD11
Method: Phage ELISA assay. Ninety-six well plates were coated with 100 μl of rat anti-pill monoclonal antibody (57D1, gift by P. Delmastro) diluted in coating buffer (1 μg/ml 50 mM carbonate buffer pH 9.6) and incubated overnight at 4° C. Palts were washed in PBST and blocked in 5% milk/PBST for 1 h at 37° C. on a rocking platform. After 1 brief wash, a mixture of cleared phage supernatant (50 μl) and 50 μl of 5% milk/PBST was added and incubated for 1 h at 37° C. The plates were washed and 100 μl of αD11 antibody dilution (1 μg/ml in 5% milk/PBS) were added and left overnight at 4° C. After washing, an alkaline phosphatase conjugated anti-mouse antibody was added and left at 4° C. for 4 hrs. The reaction was developed by adding 200 μl of the substrate solution (10% dietanolamine, 5 mM MgCl2 pH 9.6) for 2 min followed by an incubation at 37° C. for 1 h in 100 μl of developing solution (1 mg/ml NTB in 10% dietanolamine, 5 mM MgCl2, pH 9.6).
Positive phage clones were analyzed by the single strand DNA sequencing. The positive phage clones were sequenced and re-tested using dot blot experiments towards the αD11 antibody. At least twenty were analyzed.

[8] = intraperitoneal, 10 μg daily from P45 to P62
[9] = intraperitoneal, daily from P45 to P62
[10] = phage injected intraventricularly

In the case of `N[C@@H](Cc1cc(I)c(Oc2cc(I)c(O)c(I)c2)c(I)c1)C(=O)O` [LT4, L-thyroxine, reference compound], the “number of ChAT-positive neurons in the basal forebrain, compared with transgenic control” value [1, 8] is reported as “equal to that observed in transgenic control animals”, the “number of ChAT-positive neurons, increase over not-treated or vehicle-treated anti-NGF mice” value [1, 8] is reported as 40% and the “AT8 labeling in the somatic compartment of neurons of the entorhinal cortex” value [2, 9] is reported as “disappearance of AT8 labeling”. The “free NGF in brain, blood serum and submandibular gland, compared with transgenic control” value [3, 9] was “reached almost the levels detectable in transgenic control animals”, the “free NGF in brain, blood serum and submandibular gland, compared with vehicle” value [3, 9] was “higher than that detected in animals treated with vehicle” and the “rescue of synaptic plasticity (LTP)” value [4] was “only a mild rescue”.
In the case of “NGF: Nerve Growth Factor, neurotrophin, given as pellet, adenoviral cDNA vector, minipump infusion or via NGF-secreting fibroblasts”, the “muscle fibre morphology and cholinergic and peptidergic innervation” value [5] is reported as “re-assumed an usual appearance” and the “ChAT expression in nuclei of the basal forebrain and behaviour (cholinergic phenotype)” value [6] is reported as “phenotype reversibility to be observed”.
For RGSRHDL [peptide 18], the “number of ChAT positive neurons in the basal forebrain” value ([1]; phage injected in both lateral ventricles at P53, killed 1 week later) was “restored”, the “AT8 labeling (hyperphosphorylated tau) in the somatic compartment of neurons of the entorhinal cortex” value ([2]; phage injected intraventricularly at P53) was “not paralleled by the disappearance of AT8 labeling; also recorded: decreases the expression in the soma” and the “binding activity of phage clone to αD11” value [7] was “stronger binding activity”. For the same compound, the “free NGF in blood serum and submandibular gland” value [3, 10] was “equal to animals treated with the non related peptide binder of anti-NT-3” and the “free NGF in brain” value [3, 10] was “increase only at the level basal forebrain”.
